From ChEMBL document CHEMBL1127142, “Novel conversion reaction of -lactam to -lactam. Synthesis of -lactam analogs of penam and penem antibiotics” (Bioorg Med Chem Lett, 1993)
Calls of active or inactive are those of the source. The calls are words filed in the database; no cut-off is given here.

What was measured:
[1] = test system: Bacteria; assay: Activity of compound tested against Gram negative bacteria at concentration of 100 ug/ml; Inactive; format: functional, organism-based
[2] = Activity of compound tested against Gram positive bacteria at concentration of 100 ug/ml; Inactive; format: functional

SMILES	Activity [1]	Activity [2]
O=C(O)C1=C([C@H]2CCCO2)S[C@@H]2[C@H](C(=O)O)CC(=O)N12	inactive	inactive
O=C(O)C1=C(C2CCCO2)S[C@@H]2[C@@H](C(=O)O)CC(=O)N12 (stereo partly drawn)	inactive	inactive
CC1(C)S[C@@H]2[C@@H](C(=O)NCc3ccccc3)CC(=O)N2[C@H]1C(=O)O	inactive	inactive
O=C(O)C1=C([C@H]2CCCO2)S[C@@H]2[C@@H](C(=O)NCc3ccccc3)CC(=O)N12	inactive	inactive
